What was measured:
HiBiT-BRM = target: T1, HiBiT-BRM (Homo sapiens, UniProt P51531); assay: HiBiT-BRM cell-based degradation assay (Nano-Glo HiBiT Lytic Detection); details: HeLa cells expressing HiBiT-BRM, 24 h; for DC50: read-out: BRM HiBit Degradation IC50
T1 construct: expressed in transfected cells
Procedure, shortened: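 Luminescence from HiBiT–LgBiT complementation in lysates of a stable HiBiT-BRM HeLa line measured after 24 h compound exposure. Degradation expressed as percent relative to DMSO-treated cells and cells given 2 μM of a known BRM/BRG1 degrader.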

HiBit-BRG1 = target: T2, HiBit-BRG1 (Homo sapiens, UniProt P51532); assay: HiBit-BRG1 cell-based degradation assay (Nano-Glo HiBiT Lytic Detection); details: HeLa cells expressing HiBit-BRG1 and LgBit, 24 h; for DC50: read-out: BRG1 HiBit Degradation IC50; for Dmax: read-out: BRG1 HiBit Degradation Maximum (%)
T2 construct: expressed in transfected cells
Procedure, shortened: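 Luminescence from reconstituted NanoBiT luciferase after lytic detection served as read-out of remaining HiBit-BRG1 in stable HeLa cells, which also express LgBit. Cells were seeded at 5000 per well and incubated with compound for 24 h. DMSO and a 2 μM known degrader defined the control range.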

T2 sequence (P51532 whole entry): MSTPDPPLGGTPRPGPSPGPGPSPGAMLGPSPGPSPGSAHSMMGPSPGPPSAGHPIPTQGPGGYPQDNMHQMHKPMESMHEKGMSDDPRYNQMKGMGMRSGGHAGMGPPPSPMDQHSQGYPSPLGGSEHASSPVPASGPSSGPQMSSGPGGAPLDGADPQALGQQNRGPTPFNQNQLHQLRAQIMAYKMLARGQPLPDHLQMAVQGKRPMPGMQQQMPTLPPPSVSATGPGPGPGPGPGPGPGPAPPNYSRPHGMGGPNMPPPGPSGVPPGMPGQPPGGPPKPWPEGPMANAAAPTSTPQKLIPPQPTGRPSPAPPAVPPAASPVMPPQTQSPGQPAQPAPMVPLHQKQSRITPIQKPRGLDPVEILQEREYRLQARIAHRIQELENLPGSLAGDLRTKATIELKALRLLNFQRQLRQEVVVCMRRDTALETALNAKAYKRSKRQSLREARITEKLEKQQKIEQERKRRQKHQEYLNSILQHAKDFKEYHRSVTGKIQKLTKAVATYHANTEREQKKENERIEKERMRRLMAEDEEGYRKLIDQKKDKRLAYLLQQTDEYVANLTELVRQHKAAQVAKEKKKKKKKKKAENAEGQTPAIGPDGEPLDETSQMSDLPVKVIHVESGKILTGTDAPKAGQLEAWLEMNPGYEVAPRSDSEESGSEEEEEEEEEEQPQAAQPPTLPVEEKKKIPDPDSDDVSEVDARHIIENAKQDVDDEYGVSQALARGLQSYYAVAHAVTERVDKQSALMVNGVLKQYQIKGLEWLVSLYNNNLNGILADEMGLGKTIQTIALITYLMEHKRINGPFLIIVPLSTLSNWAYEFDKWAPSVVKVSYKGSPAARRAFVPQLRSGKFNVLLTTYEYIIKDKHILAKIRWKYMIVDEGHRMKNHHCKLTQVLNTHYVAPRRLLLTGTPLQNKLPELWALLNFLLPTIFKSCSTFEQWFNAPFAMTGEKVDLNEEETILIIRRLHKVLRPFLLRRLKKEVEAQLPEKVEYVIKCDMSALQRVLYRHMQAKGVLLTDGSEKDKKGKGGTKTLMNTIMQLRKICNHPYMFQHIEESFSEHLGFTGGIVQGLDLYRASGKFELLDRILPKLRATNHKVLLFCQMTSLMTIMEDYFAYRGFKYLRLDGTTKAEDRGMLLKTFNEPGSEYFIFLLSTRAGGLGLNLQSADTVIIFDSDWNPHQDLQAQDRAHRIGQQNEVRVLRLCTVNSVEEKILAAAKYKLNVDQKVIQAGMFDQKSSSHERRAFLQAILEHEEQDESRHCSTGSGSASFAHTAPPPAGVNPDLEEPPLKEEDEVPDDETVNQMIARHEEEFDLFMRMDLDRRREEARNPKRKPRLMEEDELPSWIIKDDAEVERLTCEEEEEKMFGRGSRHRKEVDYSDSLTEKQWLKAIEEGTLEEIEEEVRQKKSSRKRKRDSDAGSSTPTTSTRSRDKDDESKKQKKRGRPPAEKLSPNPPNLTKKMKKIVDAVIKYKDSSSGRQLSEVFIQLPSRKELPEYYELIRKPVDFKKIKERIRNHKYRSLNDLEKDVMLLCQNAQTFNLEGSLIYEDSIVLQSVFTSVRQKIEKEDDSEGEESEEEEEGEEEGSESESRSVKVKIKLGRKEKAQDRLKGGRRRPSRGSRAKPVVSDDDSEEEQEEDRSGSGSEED
T1 sequence (P51531 whole entry): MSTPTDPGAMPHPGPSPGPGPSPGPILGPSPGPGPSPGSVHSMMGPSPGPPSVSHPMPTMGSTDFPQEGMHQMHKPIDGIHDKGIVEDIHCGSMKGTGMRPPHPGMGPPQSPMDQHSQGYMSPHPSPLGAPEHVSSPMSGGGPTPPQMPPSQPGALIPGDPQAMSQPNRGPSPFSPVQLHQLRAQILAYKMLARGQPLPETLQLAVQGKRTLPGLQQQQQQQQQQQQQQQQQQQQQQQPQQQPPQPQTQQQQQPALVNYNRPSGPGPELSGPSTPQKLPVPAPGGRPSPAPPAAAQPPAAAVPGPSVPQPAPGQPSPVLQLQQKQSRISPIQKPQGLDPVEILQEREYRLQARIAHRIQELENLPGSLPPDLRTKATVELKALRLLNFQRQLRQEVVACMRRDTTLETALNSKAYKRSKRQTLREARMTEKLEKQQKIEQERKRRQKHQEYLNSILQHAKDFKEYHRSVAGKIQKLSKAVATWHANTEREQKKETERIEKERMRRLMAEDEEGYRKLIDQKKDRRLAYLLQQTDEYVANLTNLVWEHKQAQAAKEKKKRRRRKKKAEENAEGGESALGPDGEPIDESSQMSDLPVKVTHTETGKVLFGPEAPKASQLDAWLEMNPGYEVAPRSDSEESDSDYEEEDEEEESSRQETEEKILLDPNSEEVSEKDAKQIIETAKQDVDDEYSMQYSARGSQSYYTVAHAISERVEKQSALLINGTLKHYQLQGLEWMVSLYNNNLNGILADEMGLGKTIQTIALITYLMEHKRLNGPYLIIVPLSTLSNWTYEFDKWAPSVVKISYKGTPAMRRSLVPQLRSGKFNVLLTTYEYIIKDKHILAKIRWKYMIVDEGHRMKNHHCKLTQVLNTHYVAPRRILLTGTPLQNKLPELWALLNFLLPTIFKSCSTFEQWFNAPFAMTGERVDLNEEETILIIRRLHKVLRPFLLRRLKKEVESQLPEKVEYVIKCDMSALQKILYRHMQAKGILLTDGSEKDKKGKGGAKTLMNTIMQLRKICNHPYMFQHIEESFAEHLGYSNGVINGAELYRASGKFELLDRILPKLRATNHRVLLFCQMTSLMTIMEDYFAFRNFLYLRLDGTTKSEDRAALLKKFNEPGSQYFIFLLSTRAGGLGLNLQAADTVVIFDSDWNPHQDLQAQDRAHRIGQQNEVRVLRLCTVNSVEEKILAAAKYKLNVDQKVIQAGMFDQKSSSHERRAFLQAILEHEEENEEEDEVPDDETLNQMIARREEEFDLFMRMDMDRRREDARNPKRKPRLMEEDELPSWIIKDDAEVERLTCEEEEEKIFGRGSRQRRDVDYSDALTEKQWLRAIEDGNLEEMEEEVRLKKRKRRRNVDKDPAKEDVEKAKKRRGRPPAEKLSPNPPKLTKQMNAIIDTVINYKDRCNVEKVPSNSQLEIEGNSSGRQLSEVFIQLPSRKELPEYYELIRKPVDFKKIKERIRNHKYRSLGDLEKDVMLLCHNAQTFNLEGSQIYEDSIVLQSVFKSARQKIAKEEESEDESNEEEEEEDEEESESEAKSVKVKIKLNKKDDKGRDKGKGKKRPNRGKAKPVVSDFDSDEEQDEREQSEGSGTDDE

Row | SMILES | DC50 (HiBiT-BRM) | DC50 (HiBit-BRG1) | Dmax (HiBit-BRG1) | BRM HiBit Degradation Maximum (%) (HiBiT-BRM)
1 | Cc1ncsc1-c1ccc(CNC(=O)[C@@H]2C[C@@H](O)CN2C(=O)[C@@H](NC(=O)CCN2CCC(OC3CN(C(=O)c4ccc(CCOc5cc(-c6ccccc6O)nnc5N)cc4)C3)CC2)C(C)(C)C)cc1 [Compound 245, (2S,4R)-1-((S)-2-(3-(4-((1-(4-(2-((3-amino-6-(2-hydroxyphenyl)pyridazin-4-yl)oxy)ethyl)benzoyl)azetidin-3-yl)oxy)piperidin-1-yl)propanamido)-3,3-dimethylbutanoyl)-4-hydroxy-N-(4-(4-methylthiazol-5-yl)benzyl)pyrrolidine-2-carboxamide] | > 1000 nM | > 1000 nM | < 50% | B (“B” indicates maximum degradation ≥50%)
2 | Cc1ncsc1-c1ccc([C@H](C)NC(=O)[C@@H]2C[C@@H](O)CN2C(=O)[C@@H](NC(=O)CCCCCCCCCCCCCC(=O)NCc2ccc(CCOc3cc(-c4ccccc4O)nnc3N)cc2)C(C)C)cc1 [Compound 246, N1-(4-(2-((3-amino-6-(2-hydroxyphenyl)pyridazin-4-yl)oxy)ethyl)benzyl)-N15-((S)-1-((2S,4R)-4-hydroxy-2-(((S)-1-(4-(4-methylthiazol-5-yl)phenyl)ethyl)carbamoyl)pyrrolidin-1-yl)-3-methyl-1-oxobutan-2-yl)pentadecanediamide] | > 10 nM | > 1000 nM | < 50% | A (“A” indicates maximum degradation ≥75%)
3 | Cc1ncsc1-c1ccc([C@H](C)NC(=O)[C@@H]2C[C@@H](O)CN2C(=O)[C@@H](c2cc(OCCN(C)Cc3ccc(CCOc4cc(-c5ccccc5O)nnc4N)cc3)no2)C(C)C)cc1 [Compound 251, (2S,4R)-1-((R)-2-(3-(2-((4-(2-((3-amino-6-(2-hydroxyphenyl)pyridazin-4-yl)oxy)ethyl)benzyl)(methyl)amino)ethoxy)isoxazol-5-yl)-3-methylbutanoyl)-4-hydroxy-N-((S)-1-(4-(4-methylthiazol-5-yl)phenyl)ethyl)pyrrolidine-2-carboxamide] | < 10 nM | < 10 nM | > 75% | A (“A” indicates maximum degradation ≥75%)
4 | Cc1ncsc1-c1ccc([C@H](C)NC(=O)[C@@H]2C[C@@H](O)CN2C(=O)[C@@H](c2cc(OCCN3CCC(OC4CN(C(=O)c5ccc(CCOc6cc(-c7ccccc7O)nnc6N)cc5)C4)CC3)no2)C(C)C)cc1 [Compound 253, (2S,4R)-1-((R)-2-(3-(2-(4-((1-(4-(2-((3-amino-6-(2-hydroxyphenyl)pyridazin-4-yl)oxy)ethyl)benzoyl)azetidin-3-yl)oxy)piperidin-1-yl)ethoxy)isoxazol-5-yl)-3-methylbutanoyl)-4-hydroxy-N-((S)-1-(4-(4-methylthiazol-5-yl)phenyl)ethyl)pyrrolidine-2-carboxamide] | < 10 nM | > 1000 nM | < 50% | A (“A” indicates maximum degradation ≥75%)
5 | Cc1ncsc1-c1ccc([C@H](C)NC(=O)[C@@H]2C[C@@H](O)CN2C(=O)[C@@H](NC(=O)CCCCCCCCCCCCCCNC(=O)c2ccc(CCOc3cc(-c4ccccc4O)nnc3N)cc2)C(C)(C)C)cc1 [Compound 254, (2S,4R)-1-((S)-2-(15-(4-(2-((3-amino-6-(2-hydroxyphenyl)pyridazin-4-yl)oxy)ethyl)benzamido)pentadecanamido)-3,3-dimethylbutanoyl)-4-hydroxy-N-((S)-1-(4-(4-methylthiazol-5-yl)phenyl)ethyl)pyrrolidine-2-carboxamide] | > 10 nM | > 1000 nM | < 50% | B (“B” indicates maximum degradation ≥50%)
6 | Cc1ncsc1-c1ccc([C@H](C)NC(=O)[C@@H]2C[C@@H](O)CN2C(=O)[C@@H](NC(=O)CCCCCCCCCCCCCC(=O)NCc2ccc(CCN(C)c3cc(-c4ccccc4O)nnc3N)cc2)C(C)(C)C)cc1 [Compound 255, N1-(4-(2-((3-amino-6-(2-hydroxyphenyl)pyridazin-4-yl)(methyl)amino)ethyl)benzyl)-N15-((S)-1-((2S,4R)-4-hydroxy-2-(((S)-1-(4-(4-methylthiazol-5-yl)phenyl)ethyl)carbamoyl)pyrrolidin-1-yl)-3,3-dimethyl-1-oxobutan-2-yl)pentadecanediamide] | > 10 nM | > 1000 nM | < 50% | A (“A” indicates maximum degradation ≥75%)
7 | Cc1ncsc1-c1ccc([C@H](C)NC(=O)[C@@H]2C[C@@H](O)CN2C(=O)[C@@H](NC(=O)CCNCCCCCCCCCCC(=O)NCc2ccc(CCOc3cc(-c4ccccc4O)nnc3N)cc2)C(C)(C)C)cc1 [Compound 256, (2S,4R)-1-((S)-2-(3-((11-((4-(2-((3-amino-6-(2-hydroxyphenyl)pyridazin-4-yl)oxy)ethyl)benzyl)amino)-11-oxoundecyl)amino)propanamido)-3,3-dimethylbutanoyl)-4-hydroxy-N-((S)-1-(4-(4-methylthiazol-5-yl)phenyl)ethyl)pyrrolidine-2-carboxamide] | > 1000 nM | > 1000 nM | < 50% | C (“C” indicates maximum degradation <50%)

More lines, main results first:

Row | DC50 (HiBiT-BRM) | DC50 (HiBit-BRG1) | Dmax (HiBit-BRG1) | SMILES | BRM HiBit Degradation Maximum (%) (HiBiT-BRM)
8 | > 10 nM | > 1000 nM | < 50% | Cc1ncsc1-c1ccc([C@H](C)NC(=O)[C@@H]2C[C@@H](O)CN2C(=O)[C@@H](NC(=O)CCCCCCCCCCC(=O)NCc2ccc(CCOc3cc(-c4ccccc4O)nnc3N)cc2)C(C)(C)C)cc1 [Compound 247, N1-(4-(2-((3-amino-6-(2-hydroxyphenyl)pyridazin-4-yl)oxy)ethyl)benzyl)-N12-((S)-1-((2S,4R)-4-hydroxy-2-(((S)-1-(4-(4-methylthiazol-5-yl)phenyl)ethyl)carbamoyl)pyrrolidin-1-yl)-3,3-dimethyl-1-oxobutan-2-yl)dodecanediamide] | A (“A” indicates maximum degradation ≥75%)
9 | > 10 nM | > 1000 nM | < 50% | Cc1ncsc1-c1ccc([C@H](C)NC(=O)[C@@H]2C[C@@H](O)CN2C(=O)[C@@H](NC(=O)CCCCCCCCCCCCC(=O)NCc2ccc(CCOc3cc(-c4ccccc4O)nnc3N)cc2)C(C)(C)C)cc1 [Compound 248, N1-(4-(2-((3-amino-6-(2-hydroxyphenyl)pyridazin-4-yl)oxy)ethyl)benzyl)-N14-((S)-1-((2S,4R)-4-hydroxy-2-(((S)-1-(4-(4-methylthiazol-5-yl)phenyl)ethyl)carbamoyl)pyrrolidin-1-yl)-3,3-dimethyl-1-oxobutan-2-yl)tetradecanediamide] | A (“A” indicates maximum degradation ≥75%)
10 | > 1000 nM | > 1000 nM | < 50% | Cc1ncsc1-c1ccc([C@H](C)NC(=O)[C@@H]2C[C@@H](O)CN2C(=O)[C@@H](NC(=O)CCN2CCC(OC3CCN(CCC(=O)NCc4ccc(CCOc5cc(-c6ccccc6O)nnc5N)cc4)CC3)CC2)C(C)(C)C)cc1 [Compound 249, (2S,4R)-1-((S)-2-(3-(4-((1-(3-((4-(2-((3-amino-6-(2-hydroxyphenyl)pyridazin-4-yl)oxy)ethyl)benzyl)amino)-3-oxopropyl)piperidin-4-yl)oxy)piperidin-1-yl)propanamido)-3,3-dimethylbutanoyl)-4-hydroxy-N-((S)-1-(4-(4-methylthiazol-5-yl)phenyl)ethyl)pyrrolidine-2-carboxamide] | A (“A” indicates maximum degradation ≥75%)
11 | > 1000 nM | > 1000 nM | < 50% | Cc1ncsc1-c1ccc([C@H](C)NC(=O)[C@@H]2C[C@@H](O)CN2C(=O)[C@@H](NC(=O)CCN2CCC3(CCN(CCC(=O)NCc4ccc(CCOc5cc(-c6ccccc6O)nnc5N)cc4)CC3)CC2)C(C)(C)C)cc1 [Compound 250, (2S,4R)-1-((S)-2-(3-(9-(3-((4-(2-((3-amino-6-(2-hydroxyphenyl)pyridazin-4-yl)oxy)ethyl)benzyl)amino)-3-oxopropyl)-3,9-diazaspiro[5.5]undecan-3-yl)propanamido)-3,3-dimethylbutanoyl)-4-hydroxy-N-((S)-1-(4-(4-methylthiazol-5-yl)phenyl)ethyl)pyrrolidine-2-carboxamide] | B (“B” indicates maximum degradation ≥50%)
12 | > 1000 nM | > 1000 nM | < 50% | Cc1ncsc1-c1ccc(CNC(=O)[C@@H]2C[C@@H](O)CN2C(=O)[C@@H](NC(=O)CCN2CCC3(CCN(CCC(=O)NCc4ccc(CCOc5cc(-c6ccccc6O)nnc5N)cc4)CC3)CC2)C(C)(C)C)cc1 [Compound 252, (2S,4R)-1-((S)-2-(3-(9-(3-((4-(2-((3-amino-6-(2-hydroxyphenyl)pyridazin-4-yl)oxy)ethyl)benzyl)amino)-3-oxopropyl)-3,9-diazaspiro[5.5]undecan-3-yl)propanamido)-3,3-dimethylbutanoyl)-4-hydroxy-N-(4-(4-methylthiazol-5-yl)benzyl)pyrrolidine-2-carboxamide] | C (“C” indicates maximum degradation <50%)
13 | > 10 nM | > 1000 nM | < 50% | Cc1ncsc1-c1ccc([C@H](C)NC(=O)[C@@H]2C[C@@H](O)CN2C(=O)[C@@H](NC(=O)CCCCCCCCC(=O)NCc2ccc(CCOc3cc(-c4ccccc4O)nnc3N)cc2)C(C)(C)C)cc1 [Compound 257, N1-(4-(2-((3-amino-6-(2-hydroxyphenyl)pyridazin-4-yl)oxy)ethyl)benzyl)-N10-((S)-1-((2S,4R)-4-hydroxy-2-(((S)-1-(4-(4-methylthiazol-5-yl)phenyl)ethyl)carbamoyl)pyrrolidin-1-yl)-3,3-dimethyl-1-oxobutan-2-yl)decanediamide] | A (“A” indicates maximum degradation ≥75%)

Reference: US20230150974A1 (Foghorn Therapeutics Inc., priority 2020, published 2023)
